Results on 19 compounds are retold here after patent publication US8354419B2, “Benzimidazole analogues for the treatment or prevention of flavivirus infections” (Vertex Pharmaceuticals Incorporated, priority 2009, dated 2013).

Molecules are shown by their SMILES.

The first assay relates to HCV (Ib) RNA replication. Briefly: Cell-based luciferase reporter HCV (1b) RNA replication assay (replicon cell lines Huh-7 5.2 and ET). The arrangement: species or system Hepatitis C virus. The settings on record: HCV 1b genotype replicon, luciferase readout, 4 days incubation; read-out: EC50_1b. Summed up: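 Huh-7-derived 5.2 or ET replicon cells carrying a firefly luciferase reporter were seeded at ~3000 cells/well in medium without G418 or phenol red. Compound was added after 3-4 h, followed by 4 days at 37 °C. Luciferase readout was used, with IC50 fitted by nonlinear regression from eleven concentrations in duplicate.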
A general note: A reporter such as luciferase makes a cellular process visible.
For the compound `COC(=O)N[C@H](C(=O)N1CC2CC2C1c1nc2cc(-c3ccc(-c4ccc5[nH]c(C6C7CC7CN6C(=O)[C@@H](NC(=O)OC)C(C)C)nc5c4)cc3)ccc2[nH]1)C(C)C` (stereo partly shown) [Compound 244], the EC50 is ≤ 5 nM.

Staying with this assay, now noted: Hepatitis C virus, Huh-7, 96 h, HCV 1b genotype replicon, luciferase readout, 4 days incubation; read-out: EC50_1b.
Consider `COC(=O)N[C@H](C(=O)N1C[C@@H](C)C[C@H]1c1nc2cc(-c3ccc(-c4ccc5nc([C@@H]6C[C@H](C)CN6C(=O)[C@H](C(C)C)N(C(=O)OC)C(C)C)[nH]c5c4)cc3)ccc2[nH]1)C(C)C` [Compound 284], for which the EC50 was ≤ 5 nM.

As to `COC(=O)N[C@H](C(=O)N1CCC[C@H]1c1nc2ccc(-c3coc(-c4ccc5nc([C@@H]6CCCN6C(=O)[C@@H](NC(=O)OC)C(C)C)[nH]c5c4)n3)cc2[nH]1)C(C)C` [Compound 236], the EC50 is ≤ 5 nM.

Regarding `COC(=O)N[C@H](C(=O)N1CCC[C@H]1c1nc2cc(C#Cc3ccc4nc([C@@H]5CCCN5C(=O)[C@@H](O)C(C)C)[nH]c4c3)ccc2[nH]1)C(C)C` [Compound 76], the EC50 was ≤ 5 nM.

With `COC(=O)N(C)[C@H](C(=O)N1C[C@@H](C)C[C@H]1c1nc2cc(-c3csc4c(-c5ccc6[nH]c([C@@H]7C[C@H](C)CN7C(=O)[C@H](C(C)C)N(C)C(=O)OC)nc6c5)csc34)ccc2[nH]1)C(C)C` [Compound 290], the EC50 was ≤ 5 nM.

Turning to `CCc1cc(-c2ccc3[nH]c([C@@H]4CCCN4C(=O)[C@@H](NC(=O)OC)C(C)C)nc3c2)ccc1-c1ccc2[nH]c([C@@H]3CCCN3C(=O)[C@@H](NC(=O)OC)C(C)C)nc2c1` [Compound 213], the EC50 was ≤ 5 nM.

For `COC(=O)N(C)[C@H](C(=O)N1CCC[C@H]1c1nc2cc(-c3ccc(-c4ccc5nc([C@@H]6CCCN6C(=O)[C@H](C(C)C)N(C)C(=O)OC)[nH]c5c4)c4c3OCO4)ccc2[nH]1)C(C)C` [Compound 182], the EC50 is ≤ 5 nM.

For `COC(=O)N[C@H](CC1CCC1)C(=O)N1CCC[C@H]1c1nc2ccc(C#Cc3ccc4nc([C@@H]5CCCN5C(=O)[C@@H](CC5CCC5)NC(=O)OC)[nH]c4c3)cc2[nH]1` [Compound 142], the EC50 was ≤ 5 nM.

With `COC(=O)N[C@H](C(=O)N1CCC[C@H]1c1nc2cc(-c3cc(F)c(-c4ccc5nc([C@@H]6CCCN6C(=O)[C@@H](NC(=O)OC)C(C)C)[nH]c5c4)cc3F)ccc2[nH]1)C(C)C` [Compound 42, ((S)-1-{(S)-2-[5-(4-{2-[(S)-1-((S)-2-Methoxycarbonylamino-3-methyl-butyryl)-pyrrolidin-2-yl]-1H-benzoimidazol-5-yl}-2,5-difluoro-phenyl)-1H-benzoimidazol-2-yl]-pyrrolidine-1-carbonyl}-2-methyl-propyl)-carbamicacid methyl ester], the EC50 was ≤ 5 nM.

In the case of `COC(=O)N[C@H](C(=O)N1CCC[C@H]1c1nc2cc(-c3nnc(-c4ccc5[nH]c([C@@H]6CCCN6C(=O)[C@@H](NC(=O)OC)C(C)C)nc5c4)s3)ccc2[nH]1)C(C)C` [Compound 184], the EC50 was ≤ 5 nM.

`COC(=O)N[C@H](C(=O)N1CCCC1c1nc2cc(-c3ccc(-c4ccc(-c5ccc6[nH]c(C7CCCN7C(=O)[C@@H](NC(=O)OC)C(C)C)nc6c5)s4)s3)ccc2[nH]1)C(C)C` (stereo partly shown) [Compound 217]: the EC50 was ≤ 5 nM.

On to `CC(C)[C@H](NC(=O)O[C@H]1CCOC1)C(=O)N1CCC[C@H]1c1nc2cc(-c3ccc(-c4ccc5[nH]c([C@@H]6CCCN6C(=O)[C@@H](NC(=O)O[C@H]6CCOC6)C(C)C)nc5c4)s3)ccc2[nH]1` [Compound 101], for which the EC50 lay within 5 to 5000 nM.

Turning to `CC(C)[C@H](NS(C)(=O)=O)C(=O)N1CCC[C@H]1c1nc2cc(C#Cc3ccc4nc([C@@H]5CCCN5C(=O)[C@@H](NS(C)(=O)=O)C(C)C)[nH]c4c3)ccc2[nH]1` [Compound 65], the EC50 was 5 to 5000 nM.

For `CC[C@@H]1CC[C@@H](c2nc3cc(-c4ccc(-c5ccc6nc([C@@H]7CC[C@@H](CC)N7C(=O)[C@@H](NC(=O)OC)C(C)C)[nH]c6c5)cc4)ccc3[nH]2)N1C(=O)[C@@H](NC(=O)OC)C(C)C` [Compound 24, ((S)-1-{(2R,5S)-2-Ethyl-5-[5-(4-{2-[(2S,5R)-5-ethyl-1-((S)-2-methoxycarbonylamino-3-methyl-butyryl)-pyrrolidin-2-yl]-1H-benzoimidazol-5-yl}-phenyl)-1H-benzoimidazol-2-yl]-pyrrolidine-1-carbonyl}-2-methyl-propyl)-carbamic acid methyl ester], the EC50 was ≤ 5 nM.

As for `COC(=O)NCC(=O)N1CCC[C@H]1c1nc2cc(C#Cc3ccc4nc([C@@H]5CCCN5C(=O)CNC(=O)OC)[nH]c4c3)ccc2[nH]1` [Compound 93], the EC50 was 5 to 5000 nM.

Turning to `COC(=O)N[C@H](C(=O)N1CCC[C@H]1c1nc2cc(-c3ccc(-c4ccc5nc([C@@H]6CCCN6C(=O)[C@@H](NC(=O)OC)C(C)C)[nH]c5c4)cn3)ccc2[nH]1)C(C)C` [Compound 6, ((S)-1-{(S)-2-[5-(5-{2-[(S)-1-((S)-2-Methoxycarbonylamino-3-methyl-butyryl)-pyrrolidin-2-yl]-1H-benzoimidazol-5-yl}-pyridin-2-yl)-1H-benzoimidazol-2-yl]-pyrrolidine-1-carbonyl}-2-methyl-propyl)-carbamic acid methyl ester], the EC50 was ≤ 5 nM.

For the compound `CCOC(=O)N[C@H](C(=O)N1CCC[C@H]1c1nc2cc(-c3ccc(-c4ccc5[nH]c([C@@H]6CCCN6C(=O)[C@@H](NC(=O)OCC)C(C)C)nc5c4)cc3)ccc2[nH]1)C(C)C` [Compound 178], the EC50 was ≤ 5 nM.

Consider `COC(=O)N[C@H](C(=O)N1CCCC[C@H]1c1nc2ccc(-c3ccc(-c4ccc5nc([C@@H]6CCCCN6C(=O)[C@@H](NC(=O)OC)C(C)C)[nH]c5c4)cc3)cc2[nH]1)C(C)C` [Compound 148], for which the EC50 was ≤ 5 nM.

`COC(=O)NC(C(=O)N1CCC[C@H]1c1nc2ccc(-c3cnc(-c4cnc(-c5ccc6nc([C@@H]7CCCN7C(=O)[C@@H](NC(=O)OC)C(C)C)[nH]c6c5)n4C)n3C)cc2[nH]1)C(C)C` (stereo partly shown) [Compound 201]: the EC50 is ≤ 5 nM.
